From patent publication US20110262561A1, “Protoilludance Norsesquiterpenoid Esters and Uses Thereof” (NATIONAL RESEARCH INSTITUTE OF CHINESE MEDICINE, priority 2010, published 2011)
Where two headings read alike, the source gives them in different places.

Tests used:
H460 = test: Alamar blue cytotoxicity assay on H460 cancer cells; format: cell-based, human; settings: for IC50: Homo sapiens, NCI-H460, alamar blue, 48 hours treatment
Procedure: (§1) The endothelial cells (human endothelial-like cells, Eahy926) and 4 cancer cell lines (MCF-7, H460, HT-29, and CEM) were derived from the American Type Culture Collection (ATCC) and were maintained in DMEM or RPMI medium (Life Technologies) supplemented with 2 mM L-glutamine and 10% heat-inactivated fetal bovine serum (FBS) (Life Technologies) under standard culture conditions. The cell viability and cell number were determined by the Trypan Blue dye-exclusion method.
(§2) The alamar blue (AB) assay (dye purchased from Biosource International, Nivelles, Belgium) was used to estimate cell viability in accordance with procedures previously described by Fatokun et al (Bone (2006) 39, 542-551). Briefly, cells were treated with various concentration of each of the test compounds (e.g., compounds of example 1.1) at 37° C. for 48 hours, and the medium in each well was then aspirated at the end of the treatment, 100 μL of fresh medium containing 10% v/v AB was then added to the control and the treated wells, respectively. Plates were then incubated at 37° C. for 6 hour prior to measuring the absorbance at 570 nm and at 600 nm wavelengths using a spectrophotometric plate reader (DYNEX Technologies, USA). Experimental data were normalized to control values. CH-205-A, K, L, O, and -P were effective on MCF-7 cells; CH-205-A, H, K, L, O, and -P were effective on H460 cells; CH-205-A and -P were effective on HT-29 cells and CH-205-A, H, N, and -O were effective on CEM cells.

[1] = MTT cell viability of endothelial cells (ECs); format: cell-based, human; settings: human, Eahy926 endothelial-like cells, column head prints none, read-out: Cell viability IC50 (cytotoxicity concentration on ECs)
Procedure: as §1
(§3) Anti-angiogenic effects of CH-205 compounds were estimated by their inhibition on the growth of endothelial cells. The toxicity of CH-205 compounds to endothelial cells was estimated using MTT (3-(4,5-dimethy;thiazol-2-yl)-2,5-diphenyltetrazolium bromide, a tetrazole) assay. MTT assay is a standard colorimetric assay (an assay which measures changes in color) for measuring the activity of enzymes that reduce yellow MTT to formazan, giving a purple color. It is also used to determine cytotoxity of potential medicinal agents and other toxic materials, since those agents would result in cell toxicity and therefore metabolic dysfunction and therefore decreased performance in the assay. The cytotoxity concentrations of the CH-205 compounds measured in MTT test are all over 20 μM (Table 2), however, their effects on angiogenesis inhibition are in nM range, indicating the safety of these compounds (Table 3).

[2] = system: endothelial cells (human endothelial-like cells, Eahy926); test: MTT cell viability of endothelial cells (ECs); format: cell-based
Procedure: as §1, §3

CEM = test: Alamar blue cytotoxicity assay on CEM cancer cells; format: cell-based; settings: for IC50: Homo sapiens, CCRF-CEM, alamar blue, 48 hours treatment
Procedure: as §1, §2

MCF-7 = test: Alamar blue cytotoxicity assay on MCF-7 cancer cells; format: cell-based; settings: for IC50: Homo sapiens, MCF7, alamar blue, 48 hours treatment
Procedure: as §1, §2

HT-29 = test: Alamar blue cytotoxicity assay on HT-29 cancer cells; format: cell-based; settings: for IC50: Homo sapiens, HT-29, alamar blue, 48 hours treatment
Procedure: as §1, §2

endothelial cells (ECs) = test: In vitro antiangiogenesis on ECs (inhibition of endothelial cell growth); format: cell-based; settings: Homo sapiens, read-out: In vitro antiangiogenesis IC50
Procedure: as §1, §3

[3] = system: H460 human lung cancer tumor xenograft
Procedure: The established, transplantable, 5×10^6/200 μL H460 tumor cells were prepared in RPMI medium. The 200 μL of cell suspension was injected subcutaneously into right flank area of each mouse. The mice were randomized into vehicle control and drug treatment groups of four-six animals each when xenografts were palpable with a tumor size of 40 mm^3. Adminitration of the lead compounds or vehicle began on day 15 when the median tumor size was ranged from 75 to 80 mm^3. Tumor-bearing animals were randomized (five per group) prior to treatment. The candidate test drugs were intraperitoneal (IP) administered into with optimal dosage once every other day (48 hr apart) for 7 or 10 times. […] Solvent vehicle and cisplatin (5 mg/kg) were used to administrate, respectively, as io negative and positive controls. Two days after last administration of tested compounds, the animals were sacrificed. The tumor dimensions were measured every other day using a linear caliper and tumor volume is calculated using the equation V (mm^3)=a×b^2/2, where a is the largest diameter and b is the smallest diameter. Body weights are also recorded once weekly. Tumor is growth inhibition ratio (TGI) is calculated using the equation TGI=(1−(the mean treated tumor mass/mean control tumor mass))*100%.

Row | Compound | effective on H460 cells (H460) | IC50 (H460) | IC50 [1] | Cell viability (% of control) 1 μM [2] | Cell viability (% of control) 10 μM [2] | Cell viability (% of control) 50 μM [2] | Cell viability (% of control) 100 μM [2] | Cell viability (% of control) 250 μM [2] | Cell viability (% of control) 500 μM [2] | effective on CEM cells (CEM) | IC50 (CEM) | effective on MCF-7 cells (MCF-7) | IC50 (MCF-7) | effective on HT-29 cells (HT-29) | IC50 (HT-29) | IC50 (endothelial cells (ECs)) | IC50 (endothelial cells (ECs); ECs) | Tumor growth inhibition ratio (TGI) ([3]; CH-205-K study, positive control 5 mg/kg (fifth value of the sentence)) | Tumor growth inhibition ratio (TGI) ([3]; CH-205-O study, positive control 5 mg/kg)
1 | COc1cc(O)c(C(=O)O[C@@H]2C[C@@]3(C)C2=C(C=O)C=C2CC(C)(C)C[C@@H]23)c(C)c1Cl [CH-205-A] | effective | 5.5 µM | 24.1 µM | 101.4 % of control | 87.9 % of control | 17.7 % of control | 8.4 % of control | 7.1 % of control | 7.9 % of control | effective | 5.8 µM | effective | 4.8 µM | effective | 4.6 µM | 0.0403 µM | – | – | –
2 | COc1cc(O)c(C(=O)O[C@@H]2C[C@]3(C)C4[C@@H](O)C(C)(C)C[C@@]4(O)C=C(C=O)[C@]23O)c(C)c1Cl (stereo partly drawn) [CH-205-E, (2R,2a6,4aR,7R,7bR)-3-formyl-2,2a,4a,5,6,7,7a,7b-octahydro-2a,4a,7-trihydroxy-6,6,7b-trimethyl-1H-cyclobuta[e]inden-2-yl 3-chloro-6-hyd roxy-4-methoxy-2-methylbenzoate] | – | > 100 µM | 220 µM | 93.5 % of control | 98.6 % of control | 80.8 % of control | 63.7 % of control | 32.1 % of control | 7.4 % of control | – | 49.6 µM | – | > 100 µM | – | 85.6 µM | – | 0.023 µM | – | –
3 | Cc1cc(O)cc(O)c1C(=O)O[C@@H]1C[C@]2(C)C3CC(C)(C)CC3C=C(CO)[C@]12O (stereo partly drawn) [CH-205-L, (2R,2aS,7bR)-2,2a,4a,5,6,7,7a,7b-octahydro-2a-hydroxy-3-(hydroxymethyl)-6,6,7b-trimethyl-1H-cyclobuta[e]inden-2-yl 2,4-dihydroxy-6-methylbenzoate] | effective | 5.1 µM | 21.1 µM | 93.2 % of control | 118.8 % of control | 6.5 % of control | 6.4 % of control | 6.5 % of control | 9.8 % of control | – | 41.2 µM | effective | 8.3 µM | – | 58.4 µM | – | 0.0011 µM | – | –
4 | Cc1c(Cl)c(O)cc(O)c1C(=O)O[C@@H]1C[C@]2(C)[C@H]3CC(C)(C)C[C@@]3(O)C=C(C=O)[C@]12O [CH-205-N, (2R,2aS,4aR,7aR,7bR)-3-formyl-2,2a,4a,5,6,7,7a,7b-octahydro-2a,4a-dihydroxy-6,6,7b-trimethyl-1H-cyclobuta[e]inden-2-yl 3-chloro-4,6-dihydroxy-2-methylbenzoate] | – | > 100 µM | 270 µM | 96.5 % of control | 94.1 % of control | 96.5 % of control | 85.1 % of control | 55.2 % of control | 7.6 % of control | effective | 5.5 µM | – | > 100 µM | – | 32.1 µM | – | 0.0035 µM | – | –
5 | N.N.[Cl][Pt][Cl] [cisplatin, reference compound] | – | – | – | – | – | – | – | – | – | – | – | – | – | – | – | – | – | 77.78% | 82%
